Experimental data as given in ChEMBL document CHEMBL1212763, “Pharmacokinetics and safety of S/GSK1349572, a next-generation HIV integrase inhibitor, in healthy volunteers” (Antimicrob Agents Chemother, 2010).

Columns and labels:
Homo sapiens [1] = assay: Toxicity in healthy human assessed as incidence of drug related incidence of pruritis at 25 mg, qd for 10 days administered as suspension measured after last dose coadministered with 3 mg CYP3A4 probe midazolam; format: organism-based; details: in vivo, 240 h
Homo sapiens [2] = assay: Toxicity in healthy human assessed as incidence of drug related incidence of pruritis at 25 mg, qd for 10 days administered as suspension measured after last dose; format: organism-based; details: in vivo, 240 h
[3] = AUC (0-infinity) in healthy human at 100 mg administered as single dose suspension; format: ADME, organism-based; design: dose 100 mg, time infinity; details: plasma
[4] = Apparent oral clearance in healthy human at 10 mg administered as single dose suspension; format: ADME, organism-based; details: in vivo
[5] = Cmax in healthy human at 10 mg administered as single dose suspension; format: ADME, organism-based; design: dose 10 mg; details: in vivo
Homo sapiens [6] = assay: Toxicity in healthy human assessed as incidence of drug related incidence of headache at 25 mg, qd for 10 days administered as suspension measured after last dose coadministered with 3 mg CYP3A4 probe midazolam; format: organism-based; details: in vivo, 240 h
[7] = Cmax in healthy human at 5 mg administered as single dose suspension; format: ADME, organism-based; design: dose 5 mg; details: in vivo
[8] = Half life in healthy human at 10 mg administered as single dose suspension; format: ADME, organism-based; details: in vivo
[9] = Tmax in healthy human at 25 mg, qd for 10 days administered as suspension measured after last dose; format: ADME, organism-based; details: in vivo
[10] = Apparent oral clearance in healthy human at 100 mg administered as single dose suspension; format: ADME, organism-based; details: in vivo
Homo sapiens [11] = assay: Toxicity in healthy human assessed as incidence of drug related incidence of pruritis at 50 mg, qd for 10 days administered as suspension measured after last dose; format: organism-based; details: in vivo, 240 h
Homo sapiens [12] = assay: Toxicity in healthy human assessed as incidence of drug related incidence of headache at 50 mg, qd for 10 days administered as suspension measured after last dose; format: organism-based; details: in vivo, 240 h
[13] = Cmax in healthy human at 2 mg administered as single dose suspension; format: ADME, organism-based; design: dose 2 mg; details: in vivo
[14] = Apparent oral clearance in healthy human at 5 mg administered as single dose suspension; format: ADME, organism-based; details: in vivo
[15] = Cmax in healthy human at 50 mg, qd for 10 days administered as suspension measured after last dose; format: ADME, organism-based; design: dose 50 mg; details: in vivo
[16] = Half life in healthy human at 50 mg administered as single dose suspension; format: ADME, organism-based; details: in vivo
Homo sapiens [17] = assay: Toxicity in healthy human assessed as incidence of drug related incidence of somnolence at 5 mg administered as single dose suspension; format: organism-based; details: in vivo
[18] = Drug level at 24 hrs in healthy human at 10 mg administered as single dose suspension; format: ADME, organism-based; details: in vivo, read-out: Drug uptake
[19] = Apparent oral clearance in healthy human at 2 mg administered as single dose suspension; format: ADME, organism-based; details: in vivo
[20] = Cmax in healthy human at 100 mg administered as single dose suspension; format: ADME, organism-based; design: dose 100 mg; details: in vivo
[21] = Half life in healthy human at 25 mg administered as single dose suspension; format: ADME, organism-based; details: in vivo
[22] = Half life in healthy human at 2 mg administered as single dose suspension; format: ADME, organism-based; details: in vivo
[23] = Tmax in healthy human at 100 mg administered as single dose suspension; format: ADME, organism-based; details: in vivo
Homo sapiens [24] = assay: Toxicity in healthy human assessed as incidence of drug related incidence of somnolence at 25 mg administered as single dose suspension; format: organism-based; details: in vivo
Homo sapiens [25] = assay: Toxicity in healthy human assessed as incidence of drug related incidence of pharyngolaryngeal pain at 25 mg, qd for 10 days administered as suspension measured after last dose; format: organism-based; details: in vivo, 240 h
Homo sapiens [26] = assay: Toxicity in healthy human assessed as incidence of drug related incidence of pruritis at 10 mg, qd for 10 days administered as suspension measured after last dose; format: organism-based; details: in vivo, 240 h
[27] = AUC (0-infinity) in healthy human at 10 mg administered as single dose suspension; format: ADME, organism-based; design: dose 10 mg, time infinity; details: plasma
[28] = Apparent oral clearance in healthy human at 50 mg administered as single dose suspension; format: ADME, organism-based; details: in vivo
[29] = Drug level in healthy human at 10 mg, qd for 10 days administered as suspension measured after last dose; format: ADME, organism-based; details: in vivo, read-out: Drug uptake
Homo sapiens [30] = assay: Toxicity in healthy human assessed as incidence of drug related incidence of somnolence at 100 mg administered as single dose suspension; format: organism-based; details: in vivo
Homo sapiens [31] = assay: Toxicity in healthy human assessed as incidence of adverse events at 10 to 50 mg, qd for 10 days administered as suspension measured after last dose; format: organism-based; details: in vivo, 240 h
[32] = Tmax in healthy human at 50 mg, qd for 10 days administered as suspension measured after last dose; format: ADME, organism-based; details: in vivo
[33] = Cmax in healthy human at 25 mg administered as single dose suspension; format: ADME, organism-based; design: dose 25 mg; details: in vivo
[34] = Drug level at 24 hrs in healthy human at 50 mg administered as single dose suspension; format: ADME, organism-based; details: in vivo, read-out: Drug uptake
[35] = AUC (0-infinity) in healthy human at 25 mg administered as single dose suspension; format: ADME, organism-based; design: dose 25 mg, time infinity; details: plasma
[36] = AUC (0-infinity) in healthy human at 5 mg administered as single dose suspension; format: ADME, organism-based; design: dose 5 mg, time infinity; details: plasma
[37] = Drug level at 24 hrs in healthy human at 2 mg administered as single dose suspension; format: ADME, organism-based; details: in vivo, read-out: Drug uptake
[38] = Drug level in healthy human at 25 mg, qd for 10 days administered as suspension measured after last dose; format: ADME, organism-based; details: in vivo, read-out: Drug uptake

C[C@@H]1CCO[C@H]2Cn3cc(C(=O)NCc4ccc(F)cc4F)c(=O)c([O-])c3C(=O)N12.[Na+] [DOLUTEGRAVIR SODIUM]
Activity (Homo sapiens [1]): 0% | Activity (Homo sapiens [2]): 0% | AUC(0-inf) [3]: 136000 ng·h/mL | CL/F [4]: 11.5 mL/min | Cmax [5]: 1230 ng/mL | Activity (Homo sapiens [6]): 0% | Cmax [7]: 661 ng/mL | half-life [8]: 12.7 h | Tmax [9]: 1 h | CL/F [10]: 12.3 mL/min | Activity (Homo sapiens [11]): 22% | Activity (Homo sapiens [12]): 22% | Cmax [13]: 231 ng/mL | CL/F [14]: 9.33 mL/min | Cmax [15]: 6160 ng/mL | half-life [16]: 14.2 h | Activity (Homo sapiens [17]): 0% | concentration at 24 h [18]: 196 ng/mL | CL/F [19]: 12 mL/min | Cmax [20]: 8140 ng/mL | half-life [21]: 12.7 h | half-life [22]: 12.7 h | Tmax [23]: 1 h | Activity (Homo sapiens [24]): 0% | Activity (Homo sapiens [25]): 0% | Activity (Homo sapiens [26]): 0% | AUC(0-inf) [27]: 14600 ng·h/mL | CL/F [28]: 11.3 mL/min | concentration at 240 h [29]: 350 ng/mL | Activity (Homo sapiens [30]): 0% | Activity (Homo sapiens [31]): Non-toxic | Tmax [32]: 1 h | Cmax [33]: 2760 ng/mL | concentration at 24 h [34]: 1060 ng/mL | AUC(0-inf) [35]: 35100 ng·h/mL | AUC(0-inf) [36]: 8870 ng·h/mL | concentration at 24 h [37]: 38.2 ng/mL | concentration at 240 h [38]: 840 ng/mL
